In test [1] the test system is Rattus norvegicus. The test can be described thus: Anti-inflammatory activity against carrageenan-induced paw oedema in rat assessed as paw thickness at 100 mg/kg measured immediately (reference value: 0.98 +/- 0.03 cm). The test is classed as functional. Background: Carrageenan injected into the paw causes an acute inflammation.
The test system of test [2] is Rattus norvegicus. The test can be described thus: Anti-inflammatory activity against carrageenan-induced paw oedema in albino rat assessed as paw thickness at 100 mg/kg measured at 3 hrs post dose (reference value: 0.93 +/- 0.02 cm). The test is classed as functional.
Test [3] has as its system Rattus norvegicus. Put plainly: Anti-inflammatory activity against carrageenan-induced paw oedema in albino rat assessed as paw thickness at 100 mg/kg measured at 6 hrs post dose (reference value: 0.92 +/- 0.03 cm). It is filed as functional.
Test [4] relates to Rattus norvegicus. Put plainly: Analgesic activity in albino rat model of thermal-induced nociception assessed as tail withdrawal latency time at 100 mg/kg, po measured immediately by tail immersion test (reference value: 2.60 +/- 0.14 min). It is filed as functional.
Test [5] has as its system Rattus norvegicus. The test can be described thus: Analgesic activity in albino rat model of thermal-induced nociception assessed as tail withdrawal latency time at 100 mg/kg, po measured at 60 mins post dose by tail immersion test (reference value: 2.62 +/- 0.11 min). It is filed as functional.
Test [6] deals with Rattus norvegicus. Put plainly: Analgesic activity in albino rat model of thermal-induced nociception assessed as tail withdrawal latency time at 100 mg/kg, po measured at 120 mins post dose by tail immersion test (reference value: 2.63 +/- 0.15 min). The test is classed as functional.
Test [7] deals with Rattus norvegicus. Put plainly: Analgesic activity in albino rat model of thermal-induced nociception assessed as tail withdrawal latency time at 100 mg/kg, po measured at 180 mins post dose by tail immersion test (reference value: 2.62 +/- 0.13 min). The test is classed as functional.
Test [8] has as its system Rattus norvegicus. Put plainly: Analgesic activity in albino rat model of thermal-induced nociception assessed as tail withdrawal latency time at 100 mg/kg, po measured at 240 mins post dose by tail immersion test (reference value: 2.62 +/- 0.13 min). The test is classed as functional.
Test [9] relates to Rattus norvegicus. The test can be described thus: Analgesic activity in albino rat model of thermal-induced nociception assessed as tail withdrawal latency time at 100 mg/kg, po measured at 300 mins post dose by tail immersion test (reference value: 2.58 +/- 0.11 min). The test is classed as functional.
In test [10] the target is Prostaglandin G/H synthase 1 (Homo sapiens, UniProt P23219). The test can be described thus: Inhibition of COX1 (unknown origin) using arachidonic acid as substrate pretreated for 10 mins followed by substrate addition measured after 2 mins by enzyme-immunoassay. To be noted: for pIC50: read-out: IC50.
For test [11], the target named is T1, Prostaglandin G/H synthase 2 (Homo sapiens, UniProt P35354).
T1 sequence (P35354 whole entry): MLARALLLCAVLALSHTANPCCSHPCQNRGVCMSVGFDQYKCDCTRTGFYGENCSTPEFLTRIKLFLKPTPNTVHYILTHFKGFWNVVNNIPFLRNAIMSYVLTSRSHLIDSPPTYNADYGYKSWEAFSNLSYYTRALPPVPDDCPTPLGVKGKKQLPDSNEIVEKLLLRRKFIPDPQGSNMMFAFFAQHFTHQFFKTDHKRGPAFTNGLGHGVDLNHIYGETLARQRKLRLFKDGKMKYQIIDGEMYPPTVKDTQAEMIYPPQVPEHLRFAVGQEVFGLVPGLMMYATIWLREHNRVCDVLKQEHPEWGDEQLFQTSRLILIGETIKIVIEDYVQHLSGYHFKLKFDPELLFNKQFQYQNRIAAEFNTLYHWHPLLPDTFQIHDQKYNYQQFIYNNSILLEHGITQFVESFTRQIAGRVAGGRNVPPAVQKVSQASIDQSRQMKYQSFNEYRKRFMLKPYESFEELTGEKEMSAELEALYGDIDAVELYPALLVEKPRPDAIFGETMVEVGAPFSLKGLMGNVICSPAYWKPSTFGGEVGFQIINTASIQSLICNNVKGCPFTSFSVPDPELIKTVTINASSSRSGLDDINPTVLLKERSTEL
The test can be described thus: Inhibition of COX2 (unknown origin) using arachidonic acid as substrate pretreated for 10 mins followed by substrate addition measured after 2 mins by enzyme-immunoassay. The following applies: for pIC50: read-out: IC50.

For the next test, the species on record is Homo sapiens. Put plainly: Selectivity index, ratio of IC50 for COX1 (unknown origin) to IC50 for COX2 (unknown origin).

pIC50: −log10 of the molar value.

Chain of Prostaglandin G/H synthase 1 (P23219 whole entry): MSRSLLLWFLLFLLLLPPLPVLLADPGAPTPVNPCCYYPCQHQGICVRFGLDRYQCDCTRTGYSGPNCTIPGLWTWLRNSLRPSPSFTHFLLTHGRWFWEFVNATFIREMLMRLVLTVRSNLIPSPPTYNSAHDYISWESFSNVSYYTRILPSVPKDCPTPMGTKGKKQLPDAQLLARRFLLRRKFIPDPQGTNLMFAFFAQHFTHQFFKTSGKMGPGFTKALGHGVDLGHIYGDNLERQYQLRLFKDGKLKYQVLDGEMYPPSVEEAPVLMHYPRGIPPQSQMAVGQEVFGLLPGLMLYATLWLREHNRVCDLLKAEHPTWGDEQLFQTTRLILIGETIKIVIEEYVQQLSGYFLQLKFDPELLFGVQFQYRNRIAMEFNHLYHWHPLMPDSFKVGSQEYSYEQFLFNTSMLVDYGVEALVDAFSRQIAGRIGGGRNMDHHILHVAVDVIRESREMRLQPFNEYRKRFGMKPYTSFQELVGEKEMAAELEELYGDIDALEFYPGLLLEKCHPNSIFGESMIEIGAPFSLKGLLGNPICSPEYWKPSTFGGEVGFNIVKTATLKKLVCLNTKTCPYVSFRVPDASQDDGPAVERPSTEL

As for `O=C([O-])Cc1ccccc1Nc1c(Cl)cccc1Cl.[Na+]` [DICLOFENAC SODIUM], the Activity with Rattus norvegicus [1] is reported as 1.02 cm; with Rattus norvegicus [2], 0.77 cm; in the test with Rattus norvegicus [3], 0.63 cm. The Time with Rattus norvegicus [4] was found to be 2.63 min; in the test on Rattus norvegicus [5], 6.44 min; in the test with Rattus norvegicus [6], 4.98 min; with Rattus norvegicus [7], 4.87 min; in the test with Rattus norvegicus [8], 4.21 min; in the test with Rattus norvegicus [9], 3.99 min.
For `CCOC(=O)C1=C(N)n2c(=O)c3ncccc3c(=O)n2C1c1ccccc1O` (stereo not given), the Activity with Rattus norvegicus [1] worked out at 0.98 cm; in the test with Rattus norvegicus [2], 0.68 cm; in the test with Rattus norvegicus [3], 0.62 cm. Moreover, the Time in the test with Rattus norvegicus [4] was determined as 2.55 min; in the test with Rattus norvegicus [5], 5.83 min; in the test on Rattus norvegicus [6], 5.53 min; with Rattus norvegicus [7], 5.75 min; in the test with Rattus norvegicus [8], 5.25 min; with Rattus norvegicus [9], 4.08 min. Besides, the pIC50 (in general, −log10 of the IC50, conventionally taken in molar units) is 7.18 in test [10] and 7.70 in test [11]. Besides, the Selectivity Index in the test listed under Homo sapiens stood at 3.32.
In the case of `CCOC(=O)C1=C(N)n2c(=O)c3ccccc3c(=O)n2C1c1ccccc1O` (stereo not given), the Activity is 0.97 cm in the test on Rattus norvegicus [1], 0.72 cm with Rattus norvegicus [2] and 0.67 cm in the test with Rattus norvegicus [3]. The Time with Rattus norvegicus [4] is listed as 2.52 min; in the test with Rattus norvegicus [5], 5.53 min; in the test on Rattus norvegicus [6] it was 6.68 min; in the test on Rattus norvegicus [7], 6.85 min; in the test on Rattus norvegicus [8], 6.33 min; in the test on Rattus norvegicus [9], 5.62 min. For the same compound, the IC50 result in test [10] and in test [11] was “Not Active” throughout.
As to `O=C(NN1C(=O)c2cccnc2C1=O)c1ccccc1O`, the figures for the Activity with Rattus norvegicus [1], with Rattus norvegicus [2] and in the test with Rattus norvegicus [3] were 0.97 cm, 0.83 cm and 0.72 cm, respectively. In addition, the Time was 2.57 min in the test on Rattus norvegicus [4]; 3.78 min with Rattus norvegicus [5]; 3.97 min in the test on Rattus norvegicus [6]; 4.3 min in the test on Rattus norvegicus [7]; 4.27 min in the test with Rattus norvegicus [8]; 4.17 min with Rattus norvegicus [9]. For the same compound, the IC50 result in test [10] and in test [11] was “Not Active” each time.
Regarding `O=C(c1ccccc1O)n1nc(Nc2ccccc2)cc1-c1ccccc1O`, the Activity in the test with Rattus norvegicus [1] is given as 0.97 cm; in the test on Rattus norvegicus [2] it was 0.63 cm; with Rattus norvegicus [3], 0.55 cm. Further, the Time amounted to 2.47 min with Rattus norvegicus [4]; 3.95 min in the test on Rattus norvegicus [5]; 4.05 min with Rattus norvegicus [6]; 4.18 min in the test on Rattus norvegicus [7]; 4.07 min in the test with Rattus norvegicus [8]; 4.22 min in the test on Rattus norvegicus [9]. Moreover, the results for the pIC50 in [10] and in test [11] were 7.15 and 7.79, respectively. Also, the Selectivity Index in the test filed under Homo sapiens amounted to 4.35.
On to `O=C(/C=C/c1ccccc1O)Nc1ccccc1`, for which the Activity in the test on Rattus norvegicus [1] amounted to 1.02 cm; with Rattus norvegicus [2], 0.83 cm; with Rattus norvegicus [3], 0.65 cm. Moreover, the Time was 2.63 min with Rattus norvegicus [4]; 3.78 min in the test on Rattus norvegicus [5]; 4.12 min with Rattus norvegicus [6]; 4.18 min in the test with Rattus norvegicus [7]; 3.92 min in the test on Rattus norvegicus [8]; 3.97 min in the test on Rattus norvegicus [9].
Take `CCOC(=O)C1=C(N)N2C(=O)CCC(=O)N2C1c1ccccc1O` (stereo not given): the values for the Activity with Rattus norvegicus [1], in the test on Rattus norvegicus [2] and in the test on Rattus norvegicus [3] were 1.02 cm, 0.7 cm and 0.65 cm, respectively. The Time worked out at 2.63 min with Rattus norvegicus [4]; 5.53 min with Rattus norvegicus [5]; 6.68 min in the test with Rattus norvegicus [6]; 6.85 min with Rattus norvegicus [7]; 6.33 min in the test with Rattus norvegicus [8]; 5.62 min in the test with Rattus norvegicus [9]. Also, the negative logarithm of the IC50 (pIC50) in test [10] is 7.06; in [11], 6.74. In addition, the Selectivity Index in the test listed under Homo sapiens worked out at 0.47.
With `O=C(NN1C(=O)c2ccccc2C1=O)c1ccccc1O`, the figures for the Activity in the test with Rattus norvegicus [1], in the test with Rattus norvegicus [2] and with Rattus norvegicus [3] were 0.98 cm, 0.73 cm and 0.72 cm, respectively. Moreover, the Time in the test with Rattus norvegicus [4] is 2.55 min; with Rattus norvegicus [5], 5.58 min; in the test on Rattus norvegicus [6], 5.58 min; with Rattus norvegicus [7], 6.25 min; in the test on Rattus norvegicus [8], 6.23 min; in the test with Rattus norvegicus [9], 7.2 min. Besides, the negative-log IC50 (pIC50) in test [10] was 7.04; in test [11], 6.88. Moreover, the Selectivity Index in the test filed under Homo sapiens stood at 0.71.
Consider `O=C(NN1C(=O)C=CC1=O)c1ccccc1O`, for which the values for the Activity with Rattus norvegicus [1], in the test with Rattus norvegicus [2] and in the test with Rattus norvegicus [3] were 1 cm, 0.83 cm and 0.77 cm, respectively. Further, the Time with Rattus norvegicus [4] was found to be 2.58 min; in the test on Rattus norvegicus [5] it was 5.98 min; in the test on Rattus norvegicus [6] it was 5.52 min; in the test on Rattus norvegicus [7], 5.47 min; in the test with Rattus norvegicus [8], 5.23 min; with Rattus norvegicus [9], 5.13 min. Further, the IC50 result in test [10] and in test [11] was “Not Active” in each case.
Take `CCOC(=O)C1=C(N)n2c(=O)ccc(=O)n2C1c1ccccc1O` (stereo not given): the Activity with Rattus norvegicus [1] is reported as 1.03 cm; in the test on Rattus norvegicus [2], 0.82 cm; with Rattus norvegicus [3], 0.7 cm. The Time is listed as 2.72 min in the test on Rattus norvegicus [4]; 4.33 min in the test on Rattus norvegicus [5]; 4.47 min in the test on Rattus norvegicus [6]; 4.58 min in the test on Rattus norvegicus [7]; 4.52 min with Rattus norvegicus [8]; 4.43 min in the test on Rattus norvegicus [9]. The pIC50 in test [10] was 7.13; in [11] it was 7.05. The Selectivity Index in the test listed under Homo sapiens is 0.83.
`Cc1cc(C)n(C(=O)c2ccccc2O)n1`: the Activity is 0.98 cm with Rattus norvegicus [1], 0.75 cm in the test on Rattus norvegicus [2] and 0.67 cm in the test on Rattus norvegicus [3]. For the same compound, the Time in the test on Rattus norvegicus [4] was determined as 2.62 min; with Rattus norvegicus [5], 6.05 min; in the test on Rattus norvegicus [6], 5.79 min; in the test on Rattus norvegicus [7] it was 4.83 min; in the test with Rattus norvegicus [8], 5.66 min; in the test on Rattus norvegicus [9], 4.8 min. Further, the IC50 entry in test [10] and in test [11] was “Not Active” in each case.
In the case of `CC1=NN(C(=O)c2ccccc2O)C(=O)C1`, the Activity in the test with Rattus norvegicus [1] is given as 1.02 cm; with Rattus norvegicus [2], 0.77 cm; with Rattus norvegicus [3], 0.67 cm. In addition, the Time in the test with Rattus norvegicus [4] was found to be 2.48 min; in the test on Rattus norvegicus [5], 5.52 min; with Rattus norvegicus [6], 4.78 min; in the test on Rattus norvegicus [7], 4.7 min; with Rattus norvegicus [8], 4.67 min; in the test on Rattus norvegicus [9], 4.4 min. In addition, the pIC50 is 7.09 in [10] and 6.82 in test [11]. In addition, the Selectivity Index in the test filed under Homo sapiens is 0.54.
As to `O=C(NN1C(=O)CCC1=O)c1ccccc1O`, the Activity is reported as 1 cm with Rattus norvegicus [1], 0.73 cm in the test with Rattus norvegicus [2] and 0.62 cm with Rattus norvegicus [3]. The Time in the test with Rattus norvegicus [4] stood at 2.42 min; in the test with Rattus norvegicus [5] it was 5.02 min; in the test on Rattus norvegicus [6] it was 4.98 min; with Rattus norvegicus [7], 4.85 min; with Rattus norvegicus [8], 5.28 min; in the test with Rattus norvegicus [9], 5.78 min. Moreover, the IC50 result in test [10] and in test [11] was “Not Active” in each case.

(Values after ChEMBL document CHEMBL4028830, “Novel pyrazoles and pyrazolo[1,2-a]pyridazines as selective COX-2 inhibitors; Ultrasound-assisted synthesis, biological evaluation, and DFT calculations” (Bioorg Med Chem Lett, 2017).)
